Laboratory results from patent US7179898B1, “Human vanilloid receptor-like receptor” (Merck & Co., Inc., priority 1998, dated 2007).

Tests used:
[1] = biological target: T1, human vanilloid receptor-like receptor (VR-L) (Homo sapiens, UniProt Q9Y5S1); test: Xenopus oocyte expression, two-electrode voltage clamp at -70 mV; type: cell-based; details: 1 μM capsaicin in the perfusate; Xenopus oocytes expressing human vr-l cDNA
T1 sequence (Q9Y5S1 1-764): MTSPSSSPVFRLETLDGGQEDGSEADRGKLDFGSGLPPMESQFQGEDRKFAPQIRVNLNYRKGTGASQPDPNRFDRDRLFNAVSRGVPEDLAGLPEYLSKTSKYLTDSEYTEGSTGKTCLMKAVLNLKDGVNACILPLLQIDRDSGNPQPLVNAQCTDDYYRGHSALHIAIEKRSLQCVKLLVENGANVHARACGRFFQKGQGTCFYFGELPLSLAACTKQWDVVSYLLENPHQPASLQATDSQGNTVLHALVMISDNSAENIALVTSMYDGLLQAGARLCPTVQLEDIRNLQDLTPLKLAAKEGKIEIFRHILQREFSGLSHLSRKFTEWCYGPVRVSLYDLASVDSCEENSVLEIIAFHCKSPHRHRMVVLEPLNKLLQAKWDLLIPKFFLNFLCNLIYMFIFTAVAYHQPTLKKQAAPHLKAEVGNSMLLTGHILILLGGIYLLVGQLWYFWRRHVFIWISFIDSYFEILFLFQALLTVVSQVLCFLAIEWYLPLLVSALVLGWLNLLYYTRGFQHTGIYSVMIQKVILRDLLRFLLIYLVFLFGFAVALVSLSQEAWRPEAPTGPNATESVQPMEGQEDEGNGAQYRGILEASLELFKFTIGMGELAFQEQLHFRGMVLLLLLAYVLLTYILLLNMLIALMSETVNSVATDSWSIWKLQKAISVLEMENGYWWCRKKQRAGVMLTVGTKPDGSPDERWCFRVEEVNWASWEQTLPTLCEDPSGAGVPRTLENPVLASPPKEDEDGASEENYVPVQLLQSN
Experimental: Adult female Xenopus laevis were anaesthetized by immersion in a 0.4% solution of 3-aminobenzoic acid ethylester for 30–45 mins (or until unresponsive). Ovary tissue was removed via a small abdominal incision and Stage V and VI oocytes were isolated with fine forceps. After mild collagenase treatment to remove follicle cells (Type 1A, 0.5 mg mL^−1, for 8 mins), the oocyte nuclei were directly injected with 10–20 nl of injection buffer (88 mM NaCl, 1 mM KCl, 15 mM HEPES, at pH 7, filtered through nitrocellulose) or sterile water containing vr-l cDNA engineered into the expression vector pcDNA3.1Zeo. Following incubation for 48 hrs, oocytes were placed in a 50 μL bath and perfused at 4–6 mL min^−1 with modified Barth's medium (MBS) consisting of 88 mM NaCl, 1 mM KCl, 10 mM HEPES, 0.82 mM MgSO4, 0.33 mM Ca(NO3)2, 0.91 mM CaCl2, 2.4 mM NaHCO3, at pH 7.5. Cells were impaled with two 1–3 MΩ electrodes containing 2 M KCl and voltage clamped between at −70 mV. Drugs were applied in the perfusate and heat was applied by bath applying preheated MBS.

[2] = biological target: T1, human vanilloid receptor-like receptor (VR-L); test: Whole-cell patch clamp of HEK 293 cells transiently transfected with vr-l cDNA; type: cell-based; design: identified as together containing the entire coding region of the VR-L gene; expressed in transfected cells; host or cells: HEK 293 cells, transient transfection; details: 1 μM capsaicin by fast perfusion; HEK 293 cells expressing human vr-l cDNA, -60 mV
Source text: A glass coverslip containing a monolayer of human embryonic kidney (HEK) 293 cells transiently transfected with the vr-l cDNA was placed in a perspex chamber mounted on the stage of a Nikon Diaphot inverted phase-contrast microscope and continuously perfused with calcium-free artificial cerebrospinal fluid (aCSF, see below). Fire-polished patch pipettes were pulled on program 10 of a WZ, DMZ-Universal puller using conventional 120TF-10 electrode-glass. Pipette tip diameter was generally 1.5–2.5 μM, resistances were approximately 4MΩ. The intracellular pipette solution used is detailed below. High resistance (>10 GΩ) seals were formed by advancing the pipette onto the cell and exerting gentle suction to break through the membrane. The cells were voltage-clamped at −60 mV, using an Axon Axopatch 2 amplifier. Drugs or heated aCSF were applied to the cell under study by fast perfusion using a large internal diameter (50–100 μM) triple-barrel pipette assembly. Drug responses were obtained by rapidly positioning the perfusion pipette to completely envelop the cell in drug solution. This was achieved via a Biologic rapid solution changer which pivots the barrels into the desired position. Fast washout was obtained by re-positioning the washout barrel in line with the cell. [table] [table]

In the case of `COc1cc(CNC(=O)CCCC/C=C/C(C)C)ccc1O` [capsaicin], the “response (inward current) to application of drug” value [1] is reported as “No responses” and the “response (inward current) to application of drug” value [2] is reported as “No responses”.
